Measured values published in ChEMBL document CHEMBL5705899 (Biochem J, 2014).
Activity calls are given as the source filed them. No cut-off for these calls is given here.

Assays:
[1] = molecular target: Discoidin domain-containing receptor 2 (Homo sapiens) (UniProt Q16832); assay: Inhibition of human DDR2 at 1 uM using poly(Ala,Glu,Lys,Tyr) as substrate in presence of 33P-ATP by ProQinase assay
[2] = molecular target: Mitogen-activated protein kinase 3 (Homo sapiens) (UniProt P27361); assay: (§1) Inhibition of recombinant human N-terminal GST-tagged ERK1 (2 to 379 residues) expressed in Escherichia coli assessed as remaining activity at 1 uM using MBP as substrate incubated for 30 mins in presence of [gamma-33P]ATP by filter binding method relative to control
[3] = molecular target: CDK9/cyclin T1 (Homo sapiens) (UniProt O60563+P50750); assay: as §1, with “CDK9 (1” for “ERK1 (2”, “372 residues)/Cyclin T1 (1 to 726” for “379”, “baculovirus infected Sf21 cells” for “Escherichia coli”, “YSPTSPSYSPTSPSYSPTSPKKK” for “MBP”
[4] = molecular target: Serine/threonine-protein kinase Nek9 (Homo sapiens) (UniProt Q8TD19); assay: Inhibition of human NEK9 at 1 uM using RBER-GSK3 as substrate in presence of 33P-ATP by ProQinase assay
[5] = molecular target: Fibroblast growth factor receptor 2 (Homo sapiens) (UniProt P21802); assay: Inhibition of human FGFR2 at 1 uM using polyEY as substrate in presence of 33P-ATP by ProQinase assay
[6] = molecular target: Serine/threonine-protein kinase 33 (Homo sapiens) (UniProt Q9BYT3); assay: Inhibition of human STK33 at 1 uM using RBER-CHKtide as substrate in presence of 33P-ATP by ProQinase assay
Sequence of Serine/threonine-protein kinase 33 (Homo sapiens) (Q9BYT3 whole entry, looked up, canonical isoform): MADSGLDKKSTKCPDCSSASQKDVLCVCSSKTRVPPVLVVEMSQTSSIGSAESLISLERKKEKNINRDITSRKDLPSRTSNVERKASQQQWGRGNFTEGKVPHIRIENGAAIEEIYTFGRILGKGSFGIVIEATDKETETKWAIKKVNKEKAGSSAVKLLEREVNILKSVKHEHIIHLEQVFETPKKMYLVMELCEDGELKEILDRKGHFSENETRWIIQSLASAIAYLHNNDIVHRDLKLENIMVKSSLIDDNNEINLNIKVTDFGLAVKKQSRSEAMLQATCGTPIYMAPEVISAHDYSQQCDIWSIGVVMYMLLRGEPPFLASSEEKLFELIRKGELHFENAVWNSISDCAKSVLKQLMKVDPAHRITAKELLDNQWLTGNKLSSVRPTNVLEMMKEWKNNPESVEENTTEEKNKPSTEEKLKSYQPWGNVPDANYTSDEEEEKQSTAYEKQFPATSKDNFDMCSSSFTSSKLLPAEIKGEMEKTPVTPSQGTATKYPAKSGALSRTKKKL

[7] = molecular target: Casein kinase I isoform alpha (Homo sapiens) (UniProt P48729); assay: Inhibition of human CK1alpha1 at 1 uM using casein as substrate in presence of 33P-ATP by ProQinase assay
[8] = molecular target: Serine/threonine-protein kinase N2 (Homo sapiens) (UniProt Q16513); assay: Inhibition of human PRK2 at 1 uM using RBER-CHKtide as substrate in presence of 33P-ATP by ProQinase assay
[9] = molecular target: Serine/threonine-protein kinase VRK1 (Homo sapiens) (UniProt Q99986); assay: Inhibition of human VRK1 at 1 uM using RBER-CHKtide as substrate in presence of 33P-ATP by ProQinase assay
[10] = molecular target: Serine/threonine-protein kinase N1 (Homo sapiens) (UniProt Q16512); assay: Inhibition of human PRK1 at 1 uM using RBER-CHKtide as substrate in presence of 33P-ATP by ProQinase assay
[11] = molecular target: Protein kinase C iota type (Homo sapiens) (UniProt P41743); assay: Inhibition of human PKCiota at 1 uM using 3xChocktide-PKC as substrate in presence of 33P-ATP by ProQinase assay
Sequence of Protein kinase C iota type (Homo sapiens) (P41743 whole entry): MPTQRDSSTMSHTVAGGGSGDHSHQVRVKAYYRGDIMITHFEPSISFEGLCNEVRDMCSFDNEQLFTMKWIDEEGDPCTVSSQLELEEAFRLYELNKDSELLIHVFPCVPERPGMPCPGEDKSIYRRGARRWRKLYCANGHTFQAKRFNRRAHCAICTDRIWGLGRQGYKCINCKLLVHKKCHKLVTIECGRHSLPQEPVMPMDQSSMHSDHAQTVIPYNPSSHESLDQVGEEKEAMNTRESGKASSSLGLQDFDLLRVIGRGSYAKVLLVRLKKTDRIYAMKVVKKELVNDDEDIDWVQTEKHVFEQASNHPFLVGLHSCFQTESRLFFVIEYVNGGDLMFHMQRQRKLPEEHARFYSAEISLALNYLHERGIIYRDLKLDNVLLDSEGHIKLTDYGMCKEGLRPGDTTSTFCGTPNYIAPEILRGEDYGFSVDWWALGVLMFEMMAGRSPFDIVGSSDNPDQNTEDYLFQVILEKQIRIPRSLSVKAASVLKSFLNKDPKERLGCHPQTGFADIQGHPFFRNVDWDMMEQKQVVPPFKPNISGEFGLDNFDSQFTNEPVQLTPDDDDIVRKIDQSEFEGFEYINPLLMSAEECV

[12] = molecular target: Tyrosine-protein kinase JAK3 (Homo sapiens) (UniProt P52333); assay: Inhibition of human JAK3 at 1 uM using poly(Ala,Glu,Lys,Tyr) as substrate in presence of 33P-ATP by ProQinase assay
[13] = molecular target: NUAK family SNF1-like kinase 1 (Homo sapiens) (UniProt O60285); assay: Inhibition of recombinant human N-terminal His6-tagged NUAK1 (2 to 660 residues) expressed in baculovirus infected Sf21 cells assessed as remaining activity at 1 uM using ALNRTSSDSALHRRR as substrate incubated for 30 mins in presence of [gamma-33P]ATP by filter binding method relative to control
[14] = molecular target: Serine/threonine-protein kinase 24 (Homo sapiens) (UniProt Q9Y6E0); assay: Inhibition of recombinant human N-terminal GST-tagged MST3 (1 to 431 residues) expressed in baculovirus infected Sf21 cells assessed as remaining activity at 1 uM using MBP as substrate incubated for 30 mins in presence of [gamma-33P]ATP by filter binding method relative to control
[15] = molecular target: Serine/threonine-protein kinase WNK1 (Homo sapiens) (UniProt Q9H4A3); assay: Inhibition of recombinant human WNK1 (1 to 661 residues) expressed in baculovirus infected Sf21 cells assessed as remaining activity at 1 uM using YLRRRLSDSNF as substrate incubated for 30 mins in presence of [gamma-33P]ATP by filter binding method relative to control
[16] = molecular target: Aurora kinase C (Homo sapiens) (UniProt Q9UQB9); assay: Inhibition of human AuroraC at 1 uM using bio-4xCHKT as substrate in presence of 33P-ATP by ProQinase assay
[17] = molecular target: Serine/threonine-protein kinase WNK2 (Homo sapiens) (UniProt Q9Y3S1); assay: Inhibition of human WNK2 at 1 uM using RBER-CHKtide as substrate in presence of 33P-ATP by ProQinase assay
Sequence of Serine/threonine-protein kinase WNK2 (Homo sapiens) (Q9Y3S1 whole entry): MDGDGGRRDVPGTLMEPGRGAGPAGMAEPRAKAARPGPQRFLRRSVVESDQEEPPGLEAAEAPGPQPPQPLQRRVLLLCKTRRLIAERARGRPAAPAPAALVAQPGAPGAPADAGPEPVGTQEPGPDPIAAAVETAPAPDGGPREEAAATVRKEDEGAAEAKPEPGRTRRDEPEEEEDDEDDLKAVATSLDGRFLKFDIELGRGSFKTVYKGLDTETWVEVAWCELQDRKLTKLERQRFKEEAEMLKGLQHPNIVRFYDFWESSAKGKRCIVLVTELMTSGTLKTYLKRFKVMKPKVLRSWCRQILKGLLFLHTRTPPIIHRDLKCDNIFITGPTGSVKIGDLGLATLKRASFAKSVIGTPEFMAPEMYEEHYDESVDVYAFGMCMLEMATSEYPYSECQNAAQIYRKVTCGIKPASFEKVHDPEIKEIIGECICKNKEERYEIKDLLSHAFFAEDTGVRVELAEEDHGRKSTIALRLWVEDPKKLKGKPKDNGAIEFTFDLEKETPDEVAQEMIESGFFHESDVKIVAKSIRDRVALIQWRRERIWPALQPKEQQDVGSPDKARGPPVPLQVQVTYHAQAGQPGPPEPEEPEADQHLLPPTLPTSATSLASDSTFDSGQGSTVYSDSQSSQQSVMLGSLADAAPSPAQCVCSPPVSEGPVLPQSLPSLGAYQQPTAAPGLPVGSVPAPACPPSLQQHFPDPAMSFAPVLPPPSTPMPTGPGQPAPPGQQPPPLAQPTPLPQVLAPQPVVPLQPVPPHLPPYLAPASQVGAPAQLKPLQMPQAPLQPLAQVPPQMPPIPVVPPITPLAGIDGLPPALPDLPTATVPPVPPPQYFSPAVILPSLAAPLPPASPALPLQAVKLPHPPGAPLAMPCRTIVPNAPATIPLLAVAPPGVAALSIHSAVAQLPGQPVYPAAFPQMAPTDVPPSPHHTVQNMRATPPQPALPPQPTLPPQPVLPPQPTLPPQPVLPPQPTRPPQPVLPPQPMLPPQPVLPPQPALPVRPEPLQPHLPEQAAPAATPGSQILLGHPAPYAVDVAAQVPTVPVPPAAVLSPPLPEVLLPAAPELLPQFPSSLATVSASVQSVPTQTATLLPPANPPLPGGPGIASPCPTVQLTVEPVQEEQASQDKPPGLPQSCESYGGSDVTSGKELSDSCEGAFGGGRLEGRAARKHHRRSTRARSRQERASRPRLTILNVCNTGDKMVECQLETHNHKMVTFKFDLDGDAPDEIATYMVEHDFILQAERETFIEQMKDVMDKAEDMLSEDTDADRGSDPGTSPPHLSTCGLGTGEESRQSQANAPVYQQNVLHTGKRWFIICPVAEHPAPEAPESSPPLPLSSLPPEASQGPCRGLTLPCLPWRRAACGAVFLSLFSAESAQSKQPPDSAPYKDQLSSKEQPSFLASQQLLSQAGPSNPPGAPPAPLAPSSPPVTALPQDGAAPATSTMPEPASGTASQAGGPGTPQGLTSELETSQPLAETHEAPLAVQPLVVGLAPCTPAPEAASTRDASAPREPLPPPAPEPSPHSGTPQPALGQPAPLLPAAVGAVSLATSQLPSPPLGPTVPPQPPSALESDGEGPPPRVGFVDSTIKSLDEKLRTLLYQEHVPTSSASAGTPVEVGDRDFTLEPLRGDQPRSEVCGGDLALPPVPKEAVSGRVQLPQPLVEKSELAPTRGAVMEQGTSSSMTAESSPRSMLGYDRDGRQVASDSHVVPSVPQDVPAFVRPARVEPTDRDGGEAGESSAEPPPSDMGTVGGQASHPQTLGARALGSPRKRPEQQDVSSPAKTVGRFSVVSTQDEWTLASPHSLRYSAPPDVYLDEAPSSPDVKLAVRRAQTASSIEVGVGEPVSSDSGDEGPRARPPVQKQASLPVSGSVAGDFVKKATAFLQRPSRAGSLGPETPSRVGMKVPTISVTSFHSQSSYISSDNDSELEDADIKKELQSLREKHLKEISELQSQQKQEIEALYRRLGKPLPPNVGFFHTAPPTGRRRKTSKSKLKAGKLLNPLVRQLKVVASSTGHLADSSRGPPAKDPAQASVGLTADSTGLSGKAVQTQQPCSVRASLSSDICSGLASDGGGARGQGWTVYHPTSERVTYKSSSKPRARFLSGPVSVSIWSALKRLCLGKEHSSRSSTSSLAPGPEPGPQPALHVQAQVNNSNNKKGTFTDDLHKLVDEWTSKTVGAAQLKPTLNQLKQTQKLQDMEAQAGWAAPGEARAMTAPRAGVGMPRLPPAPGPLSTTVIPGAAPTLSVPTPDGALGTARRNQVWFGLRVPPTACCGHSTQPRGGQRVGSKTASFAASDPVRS

[18] = molecular target: Serine/threonine-protein kinase Chk2 (Homo sapiens) (UniProt O96017); assay: Inhibition of human CHK2 at 1 uM using bio-4xCHKT as substrate in presence of 33P-ATP by ProQinase assay
[19] = molecular target: Eukaryotic elongation factor 2 kinase (Homo sapiens) (UniProt O00418); assay: Inhibition of recombinant human N-terminal GST-tagged EF2K (2 to 725 residues) expressed in Escherichia coli assessed as remaining activity at 1 uM using RKKFGESKTKTKEFL as substrate incubated for 30 mins in presence of [gamma-33P]ATP by filter binding method relative to control
[20] = molecular target: Dual specificity tyrosine-phosphorylation-regulated kinase 3 (Homo sapiens) (UniProt O43781); assay: Inhibition of recombinant human N-terminal GST-tagged DYRK3 (1 to 588 residues) expressed in Escherichia coli assessed as remaining activity at 1 uM using KKISGRLSPIMTEQ as substrate incubated for 30 mins in presence of [gamma-33P]ATP by filter binding method relative to control
Sequence of Dual specificity tyrosine-phosphorylation-regulated kinase 3 (Homo sapiens) (O43781 whole entry, the tested form may be a part): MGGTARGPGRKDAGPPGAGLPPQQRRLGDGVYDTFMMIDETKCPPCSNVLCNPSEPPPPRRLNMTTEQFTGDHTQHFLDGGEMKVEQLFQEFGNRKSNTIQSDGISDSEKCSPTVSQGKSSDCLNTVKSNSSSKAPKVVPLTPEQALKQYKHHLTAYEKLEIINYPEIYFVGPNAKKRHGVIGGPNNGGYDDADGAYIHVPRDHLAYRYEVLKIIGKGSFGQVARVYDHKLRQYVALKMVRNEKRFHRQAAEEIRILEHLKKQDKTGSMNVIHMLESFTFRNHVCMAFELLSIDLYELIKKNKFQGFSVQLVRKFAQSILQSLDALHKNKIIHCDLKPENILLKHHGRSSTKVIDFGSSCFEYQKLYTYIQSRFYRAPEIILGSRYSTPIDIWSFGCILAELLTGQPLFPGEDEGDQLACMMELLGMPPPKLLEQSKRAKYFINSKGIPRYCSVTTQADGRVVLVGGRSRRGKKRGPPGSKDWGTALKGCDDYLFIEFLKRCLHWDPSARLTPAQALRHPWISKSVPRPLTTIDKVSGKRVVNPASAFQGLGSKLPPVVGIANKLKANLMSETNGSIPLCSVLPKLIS

[21] = molecular target: Insulin-like growth factor 1 receptor (Homo sapiens) (UniProt P08069); assay: Inhibition of human IGF1R at 1 uM using polyEY as substrate in presence of 33P-ATP by ProQinase assay
[22] = molecular target: 5'-AMP-activated protein kinase catalytic subunit alpha-1 (Homo sapiens) (UniProt Q13131); assay: Inhibition of human AMPKalpha1 (1 to 550 residues) at 1 uM using RBER-CHKtide as substrate in presence of 33P-ATP by ProQinase assay
Sequence of 5'-AMP-activated protein kinase catalytic subunit alpha-1 (Homo sapiens) (Q13131 whole entry, looked up, the tested form may be a part): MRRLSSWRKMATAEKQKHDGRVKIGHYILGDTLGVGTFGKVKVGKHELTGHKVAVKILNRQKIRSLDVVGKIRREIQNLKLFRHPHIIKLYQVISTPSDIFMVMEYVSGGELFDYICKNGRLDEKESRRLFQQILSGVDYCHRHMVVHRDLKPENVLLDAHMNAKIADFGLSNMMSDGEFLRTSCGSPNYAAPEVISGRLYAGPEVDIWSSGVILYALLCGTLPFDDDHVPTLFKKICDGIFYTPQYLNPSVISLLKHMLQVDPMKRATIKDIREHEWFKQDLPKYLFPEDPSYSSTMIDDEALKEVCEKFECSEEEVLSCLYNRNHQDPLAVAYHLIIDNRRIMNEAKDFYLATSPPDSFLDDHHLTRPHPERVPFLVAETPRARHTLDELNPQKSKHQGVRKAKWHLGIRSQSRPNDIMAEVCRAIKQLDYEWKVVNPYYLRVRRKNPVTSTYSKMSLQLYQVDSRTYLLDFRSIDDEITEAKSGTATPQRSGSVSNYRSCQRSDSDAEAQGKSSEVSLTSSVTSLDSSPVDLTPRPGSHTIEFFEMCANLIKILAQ

[23] = molecular target: Eukaryotic translation initiation factor 2-alpha kinase 3 (Homo sapiens) (UniProt Q9NZJ5); assay: Inhibition of recombinant human N-terminal GST-tagged EIF2AK3 (536 to 1116 residues) expressed in Escherichia coli assessed as remaining activity at 1 uM using MBP as substrate incubated for 30 mins in presence of [gamma-33P]ATP by filter binding method relative to control
[24] = molecular target: MAP kinase-interacting serine/threonine-protein kinase 1 (Homo sapiens) (UniProt Q9BUB5); assay: Inhibition of recombinant human N-terminal GST-tagged C-terminal His6-tagged MNK1 (2 to 424 residues) expressed in Escherichia coli assessed as remaining activity at 1 uM using eIF4E as substrate incubated for 30 mins in presence of [gamma-33P]ATP by filter binding method relative to control
Sequence of MAP kinase-interacting serine/threonine-protein kinase 1 (Homo sapiens) (Q9BUB5 whole entry, looked up, the tested form may be a part): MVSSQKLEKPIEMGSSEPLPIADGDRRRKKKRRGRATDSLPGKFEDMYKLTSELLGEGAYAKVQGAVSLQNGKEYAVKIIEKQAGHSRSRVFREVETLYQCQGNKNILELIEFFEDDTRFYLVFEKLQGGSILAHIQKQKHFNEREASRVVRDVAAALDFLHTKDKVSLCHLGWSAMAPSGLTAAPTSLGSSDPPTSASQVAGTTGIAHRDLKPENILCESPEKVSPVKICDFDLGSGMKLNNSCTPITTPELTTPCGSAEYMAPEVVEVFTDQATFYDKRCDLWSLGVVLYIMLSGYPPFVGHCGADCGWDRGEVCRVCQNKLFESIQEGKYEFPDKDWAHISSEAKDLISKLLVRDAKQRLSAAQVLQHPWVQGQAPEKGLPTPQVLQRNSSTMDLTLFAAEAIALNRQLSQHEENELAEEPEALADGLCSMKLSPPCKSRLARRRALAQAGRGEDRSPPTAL

CC(C)(O)CNc1ncc(-c2ccnc(Nc3ccnc(Cl)c3)n2)c(CC2CC2)n1 was tested. Which inhibition [1] did it give?
Its inhibition is “inactive”.

And the Activity [2]?
The Activity was 108%.

And the Activity [3]?
The Activity was 91%.

What about the inhibition [4] of the same compound?
Its inhibition is “inactive”.

What about the inhibition [5] of the same compound?
Its inhibition is “inactive”.

What about the inhibition [6] of the same compound?
Its inhibition is “inactive”.

And the inhibition [7]?
Its inhibition is “inactive”.

What about the inhibition [8] of the same compound?
Its inhibition is “inactive”.

And the inhibition [9]?
The inhibition was “inactive”.

And the inhibition [10]?
Its inhibition is “inactive”.

What about the inhibition [11] of the same compound?
The inhibition was “inactive”.

And the inhibition [12]?
Its inhibition is “inactive”.

What about the Activity [13] of the same compound?
The Activity was 112%.

What about the Activity [14] of the same compound?
The Activity was 118%.

And the Activity [15]?
Its Activity is 116%.

And the inhibition [16]?
The inhibition was “inactive”.

What about the inhibition [17] of the same compound?
Its inhibition is “inactive”.

And the inhibition [18]?
Its inhibition is “inactive”.

And the Activity [19]?
The Activity was 115%.

And the Activity [20]?
The Activity was 112%.

And the inhibition [21]?
Its inhibition is “inactive”.

And the inhibition [22]?
Its inhibition is “inactive”.

And the Activity [23]?
The Activity was 125%.

What about the Activity [24] of the same compound?
Its Activity is 122%.
